The results in this text go back to US8791144B2, “Substituted N-phenyl-1-(4-Pyridinyl)-1H-pyrazol-3-amines” (Janssen Pharmaceutica NV, priority 2009, dated 2014).

In series [1] the target is T1, hα7-wt nAChR (Homo sapiens, UniProt P36544). Nature of the series: Ca2+ flux imaging (FDSS): potentiation of the choline response. The class given is cell-based. Conditions: Ca2+ assay as described in D.1; potentiation of choline response, hα7-wt nAChR; read-out: Potency (pEC50) (converted). The method, then: • a) Assay Buffer • Hanks buffered saline solution (HBSS, Invitrogen, Belgium), supplemented with 10 mM HEPES (Invitrogen, Belgium), CaCl2 to a final concentration of 5 mM, 0.1% Bovine serum albumin (Sigma-Aldrich NV, Belgium). • b) Calcium-Sensitive Dye—Fluo-4AM • Fluo-4AM (Molecular Probes, USA) was dissolved in DMSO containing 10% Pluronic acid (Molecular Probes, USA) to give a stock solution which was diluted in assay buffer supplemented with 5 mM probenicid (Sigma, Aldrich NV, Belgium) to give a final concentration of 2 μM. • c) 384-Well Plates • Black 384 well plate black/clear plates, PDL pre-coated (Corning, Incorporated, USA) • d) Calcium Flux Measurement • A Functional drug screening system (FDSS, Hamamatsu) was used to measure intracellular free-calcium flux signals. Method
Monolayers of hα7-wt nAChR-expressing cells were grown in multi-well plates, in particular black-sided, transparent bottomed 384 well plates coated with poly-D-lysine for 24 hours prior to loading with a fluorescent calcium indicator, in a particular embodiment loading with fluo-4AM for up to 120 minutes.
PAM activity was detected in real time by applying the compounds to be tested to the loaded cells along with a α7 nicotinic receptor agonist during constant monitoring of cellular fluorescence in a FDSS. Compounds giving peak fluorescent responses greater than the response due to agonist alone, were considered to be α7 nAChR PAM's. In a particular embodiment, the α7 nicotinic receptor agonist was choline, a more particular embodiment choline applied at a sub-maximal concentration of 100 μM. In a further setting of the present invention the compounds to be tested were applied prior to the α7 nicotinic receptor agonist, in a particular embodiment up to 10 minutes prior to the agonist.
A control response to choline was calculated on each plate from the difference in peak in fluorescence in wells receiving either choline or assay buffer alone. Compounds of the present invention were tested at a concentration range from 0.01 μM to 30 μM. Compounds were considered to have an interesting activity when they potentiated the choline signal at least with 200% when tested at a concentration of 30 μM (the efficacy of 100 μM choline was defined as 100% in the absence of a PAM). An EC50 (or pEC50) was determined as a concentration relating to half the maximal effect, when a clear sigmoidal curve with top plateau was obtained.
On the technique in general: Calcium assays in cells follow changes in intracellular calcium, usually with a dye or a luminescent sensor.

Series [2] deals with T1, hα7-wt nAChR. Nature of the series: Patch-clamp current recording (whole-cell voltage clamp), potentiation of choline current and PAM type. The class given is cell-based. Details: key: Type 0 compounds minimally enhance the effect size of the current elicited by 1 mM choline.; Type 1 compounds enhance the effect size of the current elicited by 1 mM choline but minimally alter the kinetics of the receptor.; Type 2 compounds enhance the effect size of the current elicited by 1 mM choline while reducing the rate and/or the extent of desensitization.; Type 3 compounds enhance the effect size of the current elicited by 1 mM choline. When tested at higher concentrations up to 10 μM they completely inhibit desensitization, in particular a 1 mM choline application of 250 milliseconds.; Type 4 compounds allow for an initial desensitization of the receptor followed by a re-opening of the receptor during agonist application. The following applies: hα7-wt nAChR-expressing GH4C1 cells, 1 mM choline. The method, then: The compounds of the present invention are classified as type 0-4, based on qualitative kinetic properties, as determined by whole-cell voltage-clamp recordings. This classification is based on the effect of an α7 PAM compound, as described hereinbefore, on the signal elicited by an agonist application. In particular, said agonist is choline at a concentration of 1 mM. In a preferred experimental setting, said α7 PAM compound and choline are simultaneously applied to the cell, as described hereinafter. Desensitization is defined as the closure of the receptor upon activation during the application of the agonist in whole-cell voltage-clamp electrophysiology measurements seen as the reduction of the […] current after initial activation by the agonist.
The definition of the PAM types 0-4 is described hereinafter: • Type 0 compounds minimally enhance the effect size of the current elicited by 1 mM choline. • Type 1 compounds enhance the effect size of the current elicited by 1 mM choline but minimally alter the kinetics of the receptor. In particular, the rate and the extent of desensitization, elicited by the agonist, is not affected. The compound-modulated response to 1 mM choline, therefore, is a close to linear scaling of the 1 mM choline response in absence of the α7 PAM compound. • Type 2 compounds enhance the effect size of the current elicited by 1 mM choline while reducing the rate and/or the extent of desensitization. • Type 3 compounds enhance the effect size of the current elicited by 1 mM choline. […] At low-potency concentrations of the α7 PAM compound, the agonist-induced activation, which is followed by desensitization, can still be separated from the compound-induced re-opening as an initial inward current-maximum. At higher potency concentrations of the α7 PAM compound, the re-opening occurs faster than the closure due to desensitization so that the initial current-maximum disappears.
A compound was considered to have interesting PAM-like activity when the potentiation of the peak current was at least 200% compared to the control choline response (=100%). Such compounds are classified as belonging to a particular PAM type in the Experimental Part. Compounds not meeting the condition are not classified as belonging to a particular PAM-type.
The compounds also have a potentiating effect on the response to choline when measured by whole-cell patch clamp electrophysiology in GH4C1 cells stably over-expressing the human wild-type α7 receptor.
Patch-clamp recording from mammalian cells has provided a powerful means of assessing the function of membrane-bound proteins thought to be subunits of ligand-gated ion channels. Activation of such proteins by endogenous or exogenous ligands cause opening of a pore associated with the receptor through which ions flow down their electrochemical gradient. In the case of the hα7-wt nAChR-expressing GH4C1 recombinant cell line the preferential permeability to calcium of this receptor means that calcium flows into the cell upon activation by ACh, choline and other nicotinic ligands giving rise to a calcium current. Since this receptor rapidly desensitizes in the presence of agonist it is important an application system is used which is capable of very rapid switching of solutions (<100 ms) to prevent partial or full desensitisation of receptor responses coincident with the time of agonist application. Consequently, a second convenient technique to assess the enhancement of nicotinic efficacy is patch-clamp recording from hα7-wt nAChR-expressing GH4C1 cells coupled with a rapid-application system.
• a) Assay Buffers • The external recording solution consisted of 152 mM NaCl, 5 mM KCl, 1 mM MgCl2, 1 mM Calcium, 10 mM HEPES; pH 7.3. […]
(The patch-clamp technique gives a direct electrical read-out from membranes.)

Structures are written as SMILES.

T1 sequence (P36544 23-502): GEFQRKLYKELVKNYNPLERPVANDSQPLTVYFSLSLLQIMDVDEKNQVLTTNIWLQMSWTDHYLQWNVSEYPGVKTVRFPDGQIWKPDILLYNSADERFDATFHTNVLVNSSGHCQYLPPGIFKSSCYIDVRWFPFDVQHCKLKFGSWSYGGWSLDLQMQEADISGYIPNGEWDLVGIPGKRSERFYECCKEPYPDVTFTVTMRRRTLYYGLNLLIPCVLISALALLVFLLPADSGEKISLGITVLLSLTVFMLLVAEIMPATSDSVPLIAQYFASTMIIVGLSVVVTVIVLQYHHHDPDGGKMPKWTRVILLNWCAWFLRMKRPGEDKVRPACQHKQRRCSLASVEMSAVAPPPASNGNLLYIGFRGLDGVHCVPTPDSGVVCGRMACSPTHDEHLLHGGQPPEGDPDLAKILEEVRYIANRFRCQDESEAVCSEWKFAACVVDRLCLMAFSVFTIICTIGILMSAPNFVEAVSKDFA

For `CCNC(=O)Cc1cc(Nc2cccc(OC(F)(F)F)c2)nn1-c1cc(C)nc(C)c1` [Compound 114, 1-(2,6-dimethyl-4-pyridinyl)-N-ethyl-3-[[3-(trifluoromethoxy)phenyl]amino]-1H-pyrazole-5-acetamide], the melting point (in general, the temperature of the solid-liquid transition) is 224.2 °C. Moreover, the EC50 in series [1] was 309 nM. In series [2], the PAM type was 2.
The like results for `Cc1cc(-n2nc(Nc3cccc(OC(F)(F)F)c3)cc2CC(=O)NC2CCC2)ccn1` [Compound 121, N-cyclobutyl-1-(2-methyl-4-pyridinyl)-3-[[3-(trifluoromethoxy)phenyl]amino]-1H-pyrazole-5-acetamide] were, in that order, 227.7 °C, 417 nM and 2.
The like results for `CCNC(=O)Cc1cc(Nc2cccc(OC(F)(F)F)c2)nn1-c1ccnc(C)c1` [Compound 113, N-ethyl-1-(2-methyl-4-pyridinyl)-3-[[3-(trifluoromethoxy)phenyl]amino]-1H-pyrazole-5-acetamide] were, in that order, 210.3 °C, 1150 nM and 3.
The like results for `CC[C@H](O)Cc1cc(Nc2cc(OC)cc(C(F)(F)F)c2)nn1-c1ccnc(C)c1` [Compound 39, (alphaS)-alpha-ethyl-3-[[3-methoxy-5-(trifluoromethyl)phenyl]amino]-1-(2-methyl-4-pyridinyl)-1H-pyrazole-5-ethanol] were, in that order, 129.2 °C, 933 nM and 4.
As for `CC[C@@H](O)Cc1cc(Nc2cccc(C(F)(F)F)c2)nn1-c1ccnc(C)c1` [Compound 35, (alphaR)-alpha-ethyl-1-(2-methyl-4-pyridinyl)-3-[[3-(trifluoromethyl)phenyl]amino]-1H-pyrazole-5-ethanol], the melting point was determined as 170 °C. Also, the EC50 in series [1] is 692 nM. Further, in series [2], the PAM type was determined as 2.
On the same counts, the results for `COc1cc(Nc2cc(CC(=O)NCC3CC3)n(-c3ccnc(C)c3)n2)cc(C(F)(F)F)c1` [Compound 5, N-(cyclopropylmethyl)-3-[[3-methoxy-5-(trifluoromethyl)phenyl]amino]-1-(2-methyl-4-pyridinyl)-1H-pyrazole-5-acetamide] are 228.3 °C, 75.9 nM and 4.
On the same counts, the results for `Cc1cc(-n2nc(Nc3cccc(Cl)c3F)cc2CC(=O)NC2CCC2)ccn1` [Compound 82, 3-[(3-chloro-2-fluorophenyl)amino]-N-cyclobutyl-1-(2-methyl-4-pyridinyl)-1H-pyrazole-5-acetamide] are 223.2 °C, 490 nM and 2.
On the same counts, the results for `Cc1cc(-n2nc(Nc3ccc(F)c(F)c3)cc2COCc2ccccc2)ccn1` [Compound 31, N-(3,4-difluorophenyl)-1-(2-methyl-4-pyridinyl)-5-[(phenylmethoxy)methyl]-1H-pyrazol-3-amine] are 171 °C, 1150 nM and 0.
For `COc1cc(Nc2cc(CC(=O)NC3CCC3)n(-c3ccnc(C)c3)n2)cc(C(F)(F)F)c1` [Compound 48, N-cyclobutyl-3-[[3-methoxy-5-(trifluoromethyl)phenyl]amino]-1-(2-methyl-4-pyridinyl)-1H-pyrazole-5-acetamide], the melting point stood at 249.2 °C. Further, in series [1], the EC50 was 79.4 nM. Besides, the PAM type in series [2] came out at 4.
Consider `Cc1cc(-n2nc(Nc3ccc(F)c(F)c3)cc2CC(=O)NCC2CC2)ccn1` [Compound 29, N-(cyclopropylmethyl)-3-[(3,4-difluorophenyl)amino]-1-(2-methyl-4-pyridinyl)-1H-pyrazole-5-acetamide], for which the melting point came to 230.3 °C. In series [1], the EC50 was 692 nM. In addition, the PAM type in series [2] is 2.
`CC[C@H](O)Cc1cc(Nc2cccc(Cl)c2)nn1-c1ccnc(C)c1` [Compound 57, (alphaS)-3-[(3-chlorophenyl)amino]-alpha-ethyl-1-(2-methyl-4-pyridinyl)-1H-pyrazole-5-ethanol] came in with a melting point of 149.3 °C. Also, the EC50 in series [1] is 2240 nM. Moreover, the PAM type in series [2] was found to be 2.
As to `CNC(=O)Cc1cc(Nc2cccc(Cl)c2F)nn1-c1ccnc(C)c1` [Compound 71, 3-[(3-chloro-2-fluorophenyl)amino]-N-methyl-1-(2-methyl-4-pyridinyl)-1H-pyrazole-5-acetamide], the melting point was found to be 229.7 °C. For the same compound, the EC50 in series [1] was 2240 nM. Besides, the PAM type in series [2] is recorded as 2.
Compound `COc1cc(Cl)cc(Nc2cc(CC(=O)NC3CCC3)n(-c3ccnc(C)c3)n2)c1` [Compound 83, 3-[(3-chloro-5-methoxyphenyl)amino]-N-cyclobutyl-1-(2-methyl-4-pyridinyl)-1H-pyrazole-5-acetamide] showed a melting point of 236.4 °C. Further, in series [1], the EC50 was 145 nM. Further, in series [2], the PAM type is given as 4.
On the same counts, the results for `CC[C@H](O)Cc1cc(Nc2cccc(C(F)(F)F)c2)nn1-c1ccnc(C)c1` [Compound 37, (alphaS)-alpha-ethyl-1-(2-methyl-4-pyridinyl)-3-[[3-(trifluoromethyl)phenyl]amino]-1H-pyrazole-5-ethanol] are 169.5 °C, 2290 nM and 2.
For the compound `Cc1cc(-n2nc(Nc3cccc(OC(F)(F)F)c3)cc2CC(=O)NC2CC2)cc(C)n1` [Compound 118, N-cyclopropyl-1-(2,6-dimethyl-4-pyridinyl)-3-[[3-(trifluoromethoxy)phenyl]amino]-1H-pyrazole-5-acetamide], the melting point was found to be 230.8 °C. In series [1], the EC50 is 324 nM. For the same compound, the PAM type in series [2] is reported as 2.
